# Measured values reported in US10660872B2, “Methods for treatment of cognitive decline” (Ramot at Tel-Aviv University Ltd., priority 2014, dated 2020).
# What was measured:
# [1] = tested on: aged ICR mice; test: oasis maze test (spatial learning); settings: 0.002 mg/kg THC, three times a week for three weeks
# [2] = tested on: ICR mice; test: body temperature using a rectal thermometer; settings: single intraperitoneal dose
# [3] = tested on: aged mice; test: Object Recognition Test (visual memory) in aged mice; settings: 0.002 mg/kg THC intraperitoneal, 3 times a week for three weeks
# [4] = tested on: ICR mice; test: hot plate test (analgesia); settings: single intraperitoneal dose, from 15 minutes after injection, hotplate 45° C.
# [5] = tested on: ICR mice; test: open field test (immobility); settings: single intraperitoneal dose, five minutes in arena
# [6] = conventional dose 1, 2 or 10 mg/kg
# [7] = low dose 0.001, 0.002 or 0.01 mg/kg
smiles,measurement,setting,value
"CCCCCc1cc(O)c2c(c1)OC(C)(C)[C@@H]1CCC(C)=C[C@@H]21 [THC, (−)-trans-Δ^9-tetrahydrocannabinol]",time to finding the filled well in test trials,[1],find the filled well in significantly less time than aged mice treated with vehicle alone
same,hypothermia (reduced body temperature),[2]; [6],induced conventional acute cannabinoid effects
same,hypothermia (reduced body temperature),[2]; [7],failed to induce any of these effects
same,adverse acute effects upon administration,[3],No adverse acute effects were recognized
same,analgesia (latency to respond to noxious stimulus),[4]; [6],induced conventional acute cannabinoid effects
same,analgesia (latency to respond to noxious stimulus),[4]; [7],failed to induce any of these effects
same,immobility (slowing of motor activity),[5]; [6],induced conventional acute cannabinoid effects
same,immobility (slowing of motor activity),[5]; [7],failed to induce any of these effects
